We go through four compounds from ChEMBL document CHEMBL1128274, “6-Aminoquinolones: a new class of quinolone antibacterials?” (1995).

Converted amounts (≈) assume the structure as drawn.

The first assay has as its system Acinetobacter calcoaceticus. The experiment in a line: Tested in vitro for inhibitory activity against gram negative bacteria Acinetobacter calcoaceticus OSMPV 113 strain. Format: functional.
As to `Nc1cc2c(=O)c(C(=O)O)cn(C3CC3)c2cc1N1CCCC1`, the minimal inhibitory concentration (MIC) – broadly, the smallest concentration in the dilution series that meets the test's criterion for growth inhibition – was 128 µg/mL (≈ 408 µM).
Consider `CC(C)(C)n1cc(C(=O)O)c(=O)c2cc(N)c(N3CCc4ccccc4C3)cc21`, for which the minimum inhibitory concentration (MIC) is 2 µg/mL (≈ 5.11 µM).
Same read-out and setting: the figure for `CN1CCN(c2c(F)c(N)c3c(=O)c(C(=O)O)cn(C4CC4)c3c2F)CC1` is 0.05 µg/mL (≈ 0.132 µM); for `Nc1cc2c(=O)c(C(=O)O)cn(-c3ccc(F)cc3)c2cc1N1CCSCC1` it is 4 µg/mL (≈ 10 µM).

For a further assay, the system named is Enterobacter cloacae. Nature of the assay: Tested in vitro for inhibitory activity against gram negative bacteria Enterobacter cloacae OMNFI 174 strain. The assay is classed as functional.
Take `Nc1cc2c(=O)c(C(=O)O)cn(C3CC3)c2cc1N1CCCC1`: inhibition of growth (MIC) required 8 µg/mL (≈ 25.5 µM).
On the same count and under the same terms, the figure for `CC(C)(C)n1cc(C(=O)O)c(=O)c2cc(N)c(N3CCc4ccccc4C3)cc21` is 8 µg/mL (≈ 20.4 µM); for `CN1CCN(c2c(F)c(N)c3c(=O)c(C(=O)O)cn(C4CC4)c3c2F)CC1` it is 0.03 µg/mL (≈ 0.0793 µM); for `Nc1cc2c(=O)c(C(=O)O)cn(-c3ccc(F)cc3)c2cc1N1CCSCC1` it is 4 µg/mL (≈ 10 µM).

The test system of another assay is Escherichia coli. Nature of the assay: Tested in vitro for inhibitory activity against gram negative bacteria Escherichia coli ATCC 8739 strain. Format: functional.
`Nc1cc2c(=O)c(C(=O)O)cn(C3CC3)c2cc1N1CCCC1` gave an MIC of 0.25 µg/mL (≈ 0.798 µM).
As for `CC(C)(C)n1cc(C(=O)O)c(=O)c2cc(N)c(N3CCc4ccccc4C3)cc21`, the minimal inhibitory concentration (MIC) is 0.12 µg/mL (≈ 0.307 µM).
On the same count and under the same terms, the figure for `CN1CCN(c2c(F)c(N)c3c(=O)c(C(=O)O)cn(C4CC4)c3c2F)CC1` is 0.004 µg/mL (≈ 0.0106 µM); for `Nc1cc2c(=O)c(C(=O)O)cn(-c3ccc(F)cc3)c2cc1N1CCSCC1` it is 0.06 µg/mL (≈ 0.15 µM).

For another assay, the system named is Escherichia coli. The experiment in a line: Tested in vitro for inhibitory activity against gram negative bacteria Escherichia coli ISF 432 strain. Format: functional.
On to `Nc1cc2c(=O)c(C(=O)O)cn(C3CC3)c2cc1N1CCCC1`, for which inhibition of growth (MIC) required 0.25 µg/mL (≈ 0.798 µM).
On the same count and under the same terms, the figure for `CC(C)(C)n1cc(C(=O)O)c(=O)c2cc(N)c(N3CCc4ccccc4C3)cc21` is 0.12 µg/mL (≈ 0.307 µM); for `CN1CCN(c2c(F)c(N)c3c(=O)c(C(=O)O)cn(C4CC4)c3c2F)CC1` it is 0.002 µg/mL (≈ 0.00529 µM); for `Nc1cc2c(=O)c(C(=O)O)cn(-c3ccc(F)cc3)c2cc1N1CCSCC1` it is 0.03 µg/mL (≈ 0.0751 µM).

The next assay has as its system Shigella. Nature of the assay: Tested in vitro for inhibitory activity against gram negative bacteria Shigella enteritidis. The assay is classed as functional.
Consider `Nc1cc2c(=O)c(C(=O)O)cn(C3CC3)c2cc1N1CCCC1`, for which 16 µg/mL (≈ 51.1 µM) was the least that counted as inhibitory (MIC).
Still for that read-out and setting: the figure for `CC(C)(C)n1cc(C(=O)O)c(=O)c2cc(N)c(N3CCc4ccccc4C3)cc21` is 8 µg/mL (≈ 20.4 µM).
On the same count and under the same terms, the figure for `CN1CCN(c2c(F)c(N)c3c(=O)c(C(=O)O)cn(C4CC4)c3c2F)CC1` is 0.03 µg/mL (≈ 0.0793 µM).
For the compound `Nc1cc2c(=O)c(C(=O)O)cn(-c3ccc(F)cc3)c2cc1N1CCSCC1`, it took 4 µg/mL (≈ 10 µM) to inhibit growth (MIC).

The subject of a further assay is Staphylococcus epidermidis. The experiment in a line: Tested in vitro for inhibitory activity against gram positive bacteria Staphylococcus epidermidis HCF berset C strain. The assay is classed as functional.
On to `Nc1cc2c(=O)c(C(=O)O)cn(C3CC3)c2cc1N1CCCC1`, for which 128 µg/mL (≈ 408 µM) was the least that counted as inhibitory (MIC).
The compound `CC(C)(C)n1cc(C(=O)O)c(=O)c2cc(N)c(N3CCc4ccccc4C3)cc21` showed an MIC of 1 µg/mL (≈ 2.55 µM).
Compound `CN1CCN(c2c(F)c(N)c3c(=O)c(C(=O)O)cn(C4CC4)c3c2F)CC1` had an MIC of 0.25 µg/mL (≈ 0.661 µM).
`Nc1cc2c(=O)c(C(=O)O)cn(-c3ccc(F)cc3)c2cc1N1CCSCC1` registered an MIC of 4 µg/mL (≈ 10 µM).

For another assay, the system named is Staphylococcus aureus. The experiment in a line: Tested in vitro for inhibitory activity against gram positive bacteria Staphylococcus aureus ATCC 6538 strain. The assay is classed as functional.
As to `Nc1cc2c(=O)c(C(=O)O)cn(C3CC3)c2cc1N1CCCC1`, the MIC stood at 128 µg/mL (≈ 408 µM).
Still for that read-out and setting: the figure for `CC(C)(C)n1cc(C(=O)O)c(=O)c2cc(N)c(N3CCc4ccccc4C3)cc21` is 0.25 µg/mL (≈ 0.639 µM).
Still for that read-out and setting: the figure for `CN1CCN(c2c(F)c(N)c3c(=O)c(C(=O)O)cn(C4CC4)c3c2F)CC1` is 0.06 µg/mL (≈ 0.159 µM); for `Nc1cc2c(=O)c(C(=O)O)cn(-c3ccc(F)cc3)c2cc1N1CCSCC1` it is 0.5 µg/mL (≈ 1.25 µM).

A further assay deals with Staphylococcus aureus. The experiment in a line: Tested in vitro for inhibitory activity against gram positive bacteria Staphylococcus aureus MPR 5 strain. The assay is classed as functional.
In turn, `Nc1cc2c(=O)c(C(=O)O)cn(C3CC3)c2cc1N1CCCC1` registered an MIC of 128 µg/mL (≈ 408 µM).
In the case of `CC(C)(C)n1cc(C(=O)O)c(=O)c2cc(N)c(N3CCc4ccccc4C3)cc21`, the lowest concentration to inhibit growth (MIC) was 0.5 µg/mL (≈ 1.28 µM).
On the same count and under the same terms, the figure for `CN1CCN(c2c(F)c(N)c3c(=O)c(C(=O)O)cn(C4CC4)c3c2F)CC1` is 0.06 µg/mL (≈ 0.159 µM); for `Nc1cc2c(=O)c(C(=O)O)cn(-c3ccc(F)cc3)c2cc1N1CCSCC1` it is 1 µg/mL (≈ 2.5 µM).

Another assay has as its system Enterococcus faecalis. Nature of the assay: Tested in vitro for inhibitory activity against gram positive bacteria Streptococcus faecalis LEP Br strain. The assay is classed as functional.
Turning to `Nc1cc2c(=O)c(C(=O)O)cn(C3CC3)c2cc1N1CCCC1`, the MIC amounted to 128 µg/mL (≈ 408 µM).
`CC(C)(C)n1cc(C(=O)O)c(=O)c2cc(N)c(N3CCc4ccccc4C3)cc21` yielded an MIC of 8 µg/mL (≈ 20.4 µM).
Still for that read-out and setting: the figure for `CN1CCN(c2c(F)c(N)c3c(=O)c(C(=O)O)cn(C4CC4)c3c2F)CC1` is 0.5 µg/mL (≈ 1.32 µM).
For `Nc1cc2c(=O)c(C(=O)O)cn(-c3ccc(F)cc3)c2cc1N1CCSCC1`, 128 µg/mL (≈ 320 µM) was the least that counted as inhibitory (MIC).

A further assay concerns Staphylococcus epidermidis. The experiment in a line: Tested in vitro for inhibitory activity against gram positive bacteria Staphylococcus epidermidis CPHL A2 strain. The assay is classed as functional.
With `Nc1cc2c(=O)c(C(=O)O)cn(C3CC3)c2cc1N1CCCC1`, it took 128 µg/mL (≈ 408 µM) to inhibit growth (MIC).
The same measure, in the same setting: the figure for `CC(C)(C)n1cc(C(=O)O)c(=O)c2cc(N)c(N3CCc4ccccc4C3)cc21` is 0.5 µg/mL (≈ 1.28 µM); for `CN1CCN(c2c(F)c(N)c3c(=O)c(C(=O)O)cn(C4CC4)c3c2F)CC1` it is 0.12 µg/mL (≈ 0.317 µM); for `Nc1cc2c(=O)c(C(=O)O)cn(-c3ccc(F)cc3)c2cc1N1CCSCC1` it is 4 µg/mL (≈ 10 µM).

A further assay has as its system Klebsiella pneumoniae. The experiment in a line: Tested in vitro for inhibitory activity against gram negative bacteria Klebsiella pneumoniae ATCC 10031 strain. The assay is classed as functional.
As for `Nc1cc2c(=O)c(C(=O)O)cn(C3CC3)c2cc1N1CCCC1`, the minimal inhibitory concentration (MIC) stood at 0.25 µg/mL (≈ 0.798 µM).
On the same count and under the same terms, the figure for `CC(C)(C)n1cc(C(=O)O)c(=O)c2cc(N)c(N3CCc4ccccc4C3)cc21` is 0.12 µg/mL (≈ 0.307 µM).
On the same count and under the same terms, the figure for `CN1CCN(c2c(F)c(N)c3c(=O)c(C(=O)O)cn(C4CC4)c3c2F)CC1` is 0.002 µg/mL (≈ 0.00529 µM); for `Nc1cc2c(=O)c(C(=O)O)cn(-c3ccc(F)cc3)c2cc1N1CCSCC1` it is 0.03 µg/mL (≈ 0.0751 µM).

The test system of a further assay is Providencia stuartii. The experiment in a line: Tested in vitro for inhibitory activity against gram negative bacteria Providencia stuartii CNUR 5 strain. The assay is classed as functional.
Turning to `Nc1cc2c(=O)c(C(=O)O)cn(C3CC3)c2cc1N1CCCC1`, the MIC amounted to 128 µg/mL (≈ 408 µM).
Still for that read-out and setting: the figure for `CC(C)(C)n1cc(C(=O)O)c(=O)c2cc(N)c(N3CCc4ccccc4C3)cc21` is 4 µg/mL (≈ 10.2 µM); for `CN1CCN(c2c(F)c(N)c3c(=O)c(C(=O)O)cn(C4CC4)c3c2F)CC1` it is 0.06 µg/mL (≈ 0.159 µM).
Same read-out and setting: the figure for `Nc1cc2c(=O)c(C(=O)O)cn(-c3ccc(F)cc3)c2cc1N1CCSCC1` is 4 µg/mL (≈ 10 µM).

Another assay deals with Pseudomonas aeruginosa. Nature of the assay: Tested in vitro for inhibitory activity against gram negative bacteria Pseudomonas aeruginosa ATCC 9027 strain. The assay is classed as functional.
`Nc1cc2c(=O)c(C(=O)O)cn(C3CC3)c2cc1N1CCCC1` showed an MIC of 128 µg/mL (≈ 408 µM).
Still for that read-out and setting: the figure for `CC(C)(C)n1cc(C(=O)O)c(=O)c2cc(N)c(N3CCc4ccccc4C3)cc21` is 32 µg/mL (≈ 81.7 µM); for `CN1CCN(c2c(F)c(N)c3c(=O)c(C(=O)O)cn(C4CC4)c3c2F)CC1` it is 0.25 µg/mL (≈ 0.661 µM); for `Nc1cc2c(=O)c(C(=O)O)cn(-c3ccc(F)cc3)c2cc1N1CCSCC1` it is 128 µg/mL (≈ 320 µM).
